According to patent publication US20170266192A1, “METHODS FOR IMPROVING DIAPHRAGM FUNCTION” (CYTOKINETICS, INC., priority 2012, published 2017):

Assays:
[1] = test system: rat diaphragm muscle; experiment: Force-frequency relationship, ex vivo electrical field stimulation
Method: (§1) Diaphragm contractile force was measured by electrical field stimulation in an organ bath system (Radnoti) based on a standard operating protocol adapted from the Treat NMD website (http://www.treat-nmd.eu/downloads/file/sops/dmd/MDX/DMD M.1.2.002.pdf). The diaphragm and the last floating rib from SHAM and LAD rats were excised, rinsed in physiological saline, and placed in a temperature controlled water-jacketed chamber (26-27° C.) containing Krebs-Henseleit Buffer (118 mM NaCl, 10 mM glucose, 4.6 mM KCl, 1.2 mM KH2PO4, 1.2 mM MgSO4*7H2O, 24.8 mM NaHCO3, 2.5 mM CaCl2, 50 mg/L tubocurarine, 50 U/L insulin, pH:7.4) that was continuously aerated with 95% O2/[…]. After 10 minutes of equilibration, vertical strips spanning the floating rib to the central tendon were cut from diaphragms. Braided silk sutures were tied at the central tendon and floating rib and attached to a force transducer between two platinum electrodes. Diaphragm strips were set to a length that produced maximum twitch tension (Lo). The force-frequency profile of the muscle was obtained by stimulating the muscle at frequencies between 10-150 Hz (Grass Stimulator, 800 ms train duration, 0.6 ms pulse width).
Force production was measured in rat diaphragm muscle ex vivo by electrical field stimulation in the presence and absence of Compound B according to the procedure of Example 6. Compound B was suspended in DMSO and added directly to the bath.
Force production was measured in rat diaphragm muscle ex vivo by electrical field stimulation in the presence and absence of fast skeletal muscle troponin activator Compound D, 1-(2-(((trans)-3-fluoro-1-(3-fluoropyridin-2-yl)cyclobutyl)methylamino)pyrimidin-5-yl)-1H-pyrrole-3-carboxamide according to the procedure of Example 6. Compound D was suspended in DMSO and added directly to the bath.

[2] = test system: skinned diaphragm fibers from SHAM and LAD rats; experiment: Force-pCa skinned muscle fiber analysis in a rat model of HF; type: cell-based; settings: 3 μM
Method: (§2) Muscle tissue for in vitro skinned fiber studies were prepared using a protocol based on Lynch and Faulkner (Am J Physiol 275:C1548-54 (1998)). Briefly, rat diaphragm or rabbit psoas muscles were rapidly dissected and rinsed with physiological saline. Muscles were then incubated in skinning solution (125 mM K-propionate, 20 mM imidazole, 5 mM EGTA, 2 mM MgCl2, 2 mM ATP, pH 7.0) supplemented with 0.5% Brij 58 (Sigma Chemicals, St. Louis, Mo.) or 0.5% Triton X-100 (Sigma Chemicals, St. Louis, Mo.) for 30 minutes at 4° C. Muscles were then placed in storage solution (125 mM K-propionate, 20 mM imidazole, 5 mM EGTA, 2 mM MgCl2, 2 mM ATP, glycerol 50%, pH 7.0) at −20° C. Muscles were incubated in storage solution at −20° C. for later use.
For skinned fiber analysis, single muscle fibers were dissected from larger segments of tissue in rigor buffer at 4° C. (20 μM MOPS, 5 μM MgCl2, 120 μM potassium acetate, 1 μM EGTA, pH 7.0). They were then suspended between a 400 A force transducer (Aurora Scientific, Ontario, Canada) and a fixed post and secured with 2-4 μl of a 5% solution of methylcellulose in acetone. […]
Force production was measured in skinned diaphragm fibers from SHAM and LAD rats exposed to increasing concentrations of calcium in the presence and absence of Compound D according to the procedure of Example 1.

[3] = test system: rat diaphragm muscle; experiment: Diaphragm repeated contraction fatigue analysis; settings: 5 uM and 10 uM, dose-dependent; 20 Hz stimulation, 10 minutes
Method: as §1, with “The force-frequency profile of the muscle was obtained by stimulating the muscle at frequencies between 10-150 Hz (Grass Stimulator, 800 ms train duration, 0.6 ms pulse width).” left out
Following the procedure of Example 7, diaphragms were subjected to repeated electrical stimulations (20 Hz stimulation, 330 ms train duration, 1 train/sec) over a period of 10 minutes. Force production was measured over 600 contractions in rat diaphragm muscle ex vivo by field electrical stimulation in the presence and absence of Compound B (5 uM and 10 uM).

[4] = test system: rat skinned diaphragm fibers; experiment: Force-pCa skinned muscle fiber analysis; type: cell-based
Method: as §2
For skinned fiber analysis, single muscle fibers were dissected from larger segments of tissue in rigor buffer at 4° C. ([…], pH 7.0). They were then suspended between a 400 A force transducer (Aurora Scientific, Ontario, Canada) and a fixed post and secured with 2-4 μl of a 5% solution of methylcellulose in acetone. Fibers were then incubated at 10° C. in a relaxing buffer ([…], 1 mg/ml creatine kinase, 1 mM DTT, 44 ppm antifoam, pH 7.0) and baseline tension adjusted. Tension was generated in each fiber by changing fiber buffer over to relax buffer supplemented with 1 mM EGTA and one or more concentrations of aqueous calcium chloride. Test articles were added to these buffers in a 1% DMSO solution.
Force production was measured in rat skinned diaphragm fibers exposed to increasing concentrations of calcium in the presence and absence of the fast skeletal muscle troponin activator Compound B, (3-(2-(((trans)-3-fluoro-1-(3-fluoropyridin-2-yl)cyclobutyl)methylamino)pyrimidin-5-yl)benzamide), according to the procedure of Example 1.
Force production was measured in rat skinned diaphragm fibers exposed to increasing concentrations of calcium in the presence and absence of the fast skeletal muscle troponin activator Compound C, 1-(ethylpropyl)-6-ethynylimidazo[4,5-b]pyrazin-2-ol, according to the procedure in Example 1.

[5] = test system: permeabilized single fibers from rat diaphragm muscle; experiment: Skinned fiber tension at constant calcium, rat diaphragm; type: cell-based
Method: as §2
(§3) For skinned fiber analysis, single muscle fibers were dissected from larger segments of tissue in rigor buffer at 4° C. (20 μM MOPS, 5 μM MgCl2, 120 μM potassium acetate, 1 μM EGTA, pH 7.0). […]
(§4) The functional effects of the fast skeletal muscle troponin activator, Compound A (6-bromo-1-(ethylpropyl)imidazo[4,5-b]pyrazin-2-ol), on skeletal muscle force were assessed under isometric conditions in permeabilized single fibers from rabbit psoas muscle and rat diaphragm muscle according to the procedure of Example 1.

[6] = test system: permeabilized single fibers from rabbit psoas muscle; experiment: Skinned fiber tension at constant calcium, rabbit psoas; type: cell-based
Method: as §2, §3, §4

[7] = test system: SOD1 mice; experiment: Unrestrained whole body plethysmography (UWBP); type: in vivo, mouse; settings: 10 mg/kg
Method: Wild type (WT) and SOD1 mice were dosed with vehicle or 10 mg/kg Compound C and placed in plethysmography chambers for 30 minutes of acclimatization. After acclimatization, respiratory parameters, including tidal volume, respiratory rate, and minute ventilation, were monitored for 10 minutes at room air. Upon completion of baseline room air measurements, animals were exposed to a 5% CO2 gas mixture for 30 minutes. After the 5% CO2 exposure, animals were re-exposed to room air and monitored.

[8] = test system: WT and SOD1 mouse diaphragm muscle; experiment: Diaphragm force-frequency relationship in a mouse ALS model; settings: frequencies up to 30 Hz; dose-dependent
Method: as §1, with “wild type (WT)” for “SHAM”, “SOD1 mice” for “LAD rats”, “width). Compound C was suspended in DMSO and directly added into the bath.” for “width).”

[9] = 30 μM, submaximal frequencies of electrical stimulation
[10] = skinned fibers, constant calcium, 10 nM-40 μM

Q: What does the source list for `NC(=O)c1ccn(-c2cnc(NCC3(c4ncccc4F)CC(F)C3)nc2)c1` (stereo not drawn) [Compound D, 1-(2-(((trans)-3-fluoro-1-(3-fluoropyridin-2-yl)cyclobutyl)methylamino)pyrimidin-5-yl)-1H-pyrrole-3-carboxamide]?
A: force in HF (LAD) diaphragms [1, 9]: significantly increased force; force in SHAM diaphragms [1, 9]: significantly increased force; Ca^2+ sensitivity of HF diaphragm fibers [2]: significantly increased Ca^2+ sensitivity; Ca^2+ sensitivity of SHAM diaphragm fibers [2]: significantly increased Ca^2+ sensitivity

Q: Which “force production compared to vehicle-only diaphragms” value ([1]; frequencies up to 30 Hz of electrical stimulation) does the source give for `NC(=O)c1cccc(-c2cnc(NC[C@]3(c4ncccc4F)C[C@H](F)C3)nc2)c1` [Compound B, 3-(2-(((trans)-3-fluoro-1-(3-fluoropyridin-2-yl)cyclobutyl)methylamino)pyrimidin-5-yl)benzamide] here?
A: significantly more force

Q: What about the “force production over 600 contractions compared to vehicle-only diaphragms” value [3] of the same compound?
A: significantly more force

Q: What about the “pCa at 50% of Maximum Tension, Log [Ca^2+] (M)” value ([4]; 0.5 uM compound, vehicle −5.43 ± 0.03) of the same compound?
A: −5.78 ± 0.008 M

Q: And the “pCa at 50% of Maximum Tension, Log [Ca^2+] (M)” value ([4]; 1 uM compound, vehicle −5.43 ± 0.03)?
A: −5.90 ± 0.03 M

Q: What about the “increase in calcium sensitivity compared to vehicle-only muscle fibers” value ([4]; 10 μM Compound B) of the same compound?
A: 10 fold

Q: What about the “pCa at 50% of Maximum Tension, Log [Ca^2+] (M)” value ([4]; 10 uM compound, vehicle −5.43 ± 0.03) of the same compound?
A: −6.46 ± 0.03 M

Q: With `CCC(CC)n1c(O)nc2ncc(Br)nc21` [Compound A, 6-bromo-1-(ethylpropyl)imidazo[4,5-b]pyrazin-2-ol] as the compound, how does the EC50 ([5]; rat diaphragm fibers, constant free calcium 3.16 μM (pCa=5.5), n=4, read-out: EC50, increase in skinned fiber tension) read?
A: 1200 nM

Q: And the “tension in rat diaphragm muscle” value [5, 10]?
A: increased tension

Q: And the EC50 ([6]; rabbit psoas fibers, constant free calcium 1.78 μM (pCa=5.75), n=3, read-out: EC50, increase in skinned fiber tension)?
A: 590 nM

Q: What about the “tension in rabbit psoas muscle” value [6, 10] of the same compound?
A: increased tension

Q: Which results are given for `C#Cc1cnc2nc(O)n(C(CC)CC)c2n1` [Compound C, 1-(ethylpropyl)-6-ethynylimidazo[4,5-b]pyrazin-2-ol]?
A: tidal volume at recovery compared to vehicle-treated animals ([7]; after 30 minute exposure to 5% CO2): significantly higher tidal volume; tidal volume at baseline compared to vehicle-treated animals ([7]; room air): significantly higher tidal volume; pCa at 50% of Maximum Tension, Log [Ca^2+] (M) ([4]; 0.1 uM compound, vehicle −5.43 ± 0.054): −5.59 ± 0.007 M; pCa at 50% of Maximum Tension, Log [Ca^2+] (M) ([4]; 1 uM compound, vehicle −5.43 ± 0.054): −6.19 ± 0.018 M; increase in calcium sensitivity compared to vehicle-only muscle fibers ([4]; 10 μM Compound C): 10 fold; pCa at 50% of Maximum Tension, Log [Ca^2+] (M) ([4]; 10 uM compound, vehicle −5.43 ± 0.054): −6.74 ± 0.28 M; force production in SOD1 diaphragm muscle compared to vehicle-only [8]: significantly more force; force production in WT diaphragm muscle compared to vehicle-only [8]: significantly more force
